These results are taken from patent publication US20260364080A1, “PYRAZOLO-PYRIMIDINONE COMPOUNDS FOR USE IN METHODS OF INHIBITING WEE1 A KINASE” (Acrivon Therapeutics, Inc., priority 2023, published 2026).

The term IC50 denotes the concentration at which inhibition is half-maximal. In general, EC50 refers to the concentration at which the effect is half-maximal.

Like-named read-outs stand apart in the source and are kept apart here. Some results are limits rather than exact numbers.

In experiment [1] the target is T1, Myt1 kinase (recombinant PMYT-1) (Homo sapiens, UniProt Q99640).
T1 construct: full length PMYT-1 was expressed by baculovirus in insect cells; purchased Invitrogen A30984; host or cells: insect cells (baculovirus)
T1 sequence (Q99640 1-499): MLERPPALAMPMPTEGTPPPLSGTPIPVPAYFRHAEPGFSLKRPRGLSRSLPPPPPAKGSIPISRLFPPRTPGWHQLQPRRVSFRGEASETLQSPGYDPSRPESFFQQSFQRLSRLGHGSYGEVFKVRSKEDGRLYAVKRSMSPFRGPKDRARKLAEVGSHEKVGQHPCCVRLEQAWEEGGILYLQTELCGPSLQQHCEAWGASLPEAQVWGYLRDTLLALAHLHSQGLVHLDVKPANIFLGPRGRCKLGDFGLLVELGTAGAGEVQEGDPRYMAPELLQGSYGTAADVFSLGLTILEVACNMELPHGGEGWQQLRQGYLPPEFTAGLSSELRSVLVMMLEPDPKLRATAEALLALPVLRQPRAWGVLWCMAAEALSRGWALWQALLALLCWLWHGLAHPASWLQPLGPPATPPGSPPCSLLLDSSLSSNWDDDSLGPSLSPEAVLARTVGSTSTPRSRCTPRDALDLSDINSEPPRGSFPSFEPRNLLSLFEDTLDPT
The experiment in a line: Myt1 kinase binding assay (LanthaScreen Eu Kinase Binding Assay). In outline:
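The binding affinity of compounds for Myt1 kinase was measured with a LanthaScreen Europium (Eu) Kinase Binding Assay, a time-resolved FRET format in which test compounds compete against a labeled kinase tracer, and the results were expressed as IC50 values describing compound binding to Myt1.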

Experiment [2] addresses T2, Wee1A kinase (CDK1 Tyr15 phosphorylation in ACHN renal cell carcinoma cells) (Homo sapiens, UniProt P30291).
T2 construct: pCDK1 Tyr15 immunofluorescence read-out
The experiment in a line: High-content imaging of pCdk1 Y15, Wee1A kinase target engagement in ACHN cells. The class given is cell-based. In outline:
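ACHN cells exposed to compound for 4 h over 7–5,000 nM or 0.3–200 nM, then fixed and immunostained for pCDK1 Y15 with DAPI nuclear counterstain. The percentage of pCdk1 Y15 nucleus-positive cells relative to DMSO control was imaged per well; EC50 from dose-response curves.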

Experiment [3] addresses T3, recombinant human Wee1A kinase (Homo sapiens, UniProt P30291).
T3 construct: full length Wee1 kinase was expressed by baculovirus in insect cells; purchased Invitrogen PV3817; host or cells: insect cells (baculovirus)
The experiment in a line: Wee1A kinase binding assay (LanthaScreen Eu time-resolved FRET). In outline: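 Full-length, baculovirus-expressed GST-tagged Wee1A (5 nM) was mixed with 2 nM Eu-anti-GST antibody, 30 nM kinase tracer 178 and compound (1% DMSO). Buffer was 50 mM HEPES pH 7.5, 10 mM MgCl2, 1 mM EGTA, 0.01% Brij-35, incubated 60 min at room temperature. TR-FRET 665/615 nm emission ratios from duplicates were curve-fitted.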
For orientation: TR-FRET usually uses a lanthanide donor and a delayed reading to cut background.

Where [4] appears, read: Myt1 kinase Binding IC50, 3 nM tracer 178, 2.5 nM PMYT-1, 1 nM Eu-labeled antibody.
[5] abbreviates: read-out: CDK1 Tyr15 Phosphorylation EC50, 4 h treatment, nuclear positivity for pCdk1 Y15 vs DMSO control.
The mark [6] stands for this setting: 3 nM tracer 178, 2.5 nM PMYT-1, 1 nM Eu-labeled antibody, read-out: Myt1 kinase Binding IC50.
The mark [7] stands for this setting: 4 h treatment, nuclear positivity for pCdk1 Y15 vs DMSO control, read-out: CDK1 Tyr15 Phosphorylation EC50.
The mark [8] stands for this setting: 30 nM tracer 178, 5 nM Wee1A kinase, 2 nM Eu-labeled antibody, 60 minutes at room temperature, read-out: Wee1A kinase Binding IC50.

T2 sequence (P30291 whole entry): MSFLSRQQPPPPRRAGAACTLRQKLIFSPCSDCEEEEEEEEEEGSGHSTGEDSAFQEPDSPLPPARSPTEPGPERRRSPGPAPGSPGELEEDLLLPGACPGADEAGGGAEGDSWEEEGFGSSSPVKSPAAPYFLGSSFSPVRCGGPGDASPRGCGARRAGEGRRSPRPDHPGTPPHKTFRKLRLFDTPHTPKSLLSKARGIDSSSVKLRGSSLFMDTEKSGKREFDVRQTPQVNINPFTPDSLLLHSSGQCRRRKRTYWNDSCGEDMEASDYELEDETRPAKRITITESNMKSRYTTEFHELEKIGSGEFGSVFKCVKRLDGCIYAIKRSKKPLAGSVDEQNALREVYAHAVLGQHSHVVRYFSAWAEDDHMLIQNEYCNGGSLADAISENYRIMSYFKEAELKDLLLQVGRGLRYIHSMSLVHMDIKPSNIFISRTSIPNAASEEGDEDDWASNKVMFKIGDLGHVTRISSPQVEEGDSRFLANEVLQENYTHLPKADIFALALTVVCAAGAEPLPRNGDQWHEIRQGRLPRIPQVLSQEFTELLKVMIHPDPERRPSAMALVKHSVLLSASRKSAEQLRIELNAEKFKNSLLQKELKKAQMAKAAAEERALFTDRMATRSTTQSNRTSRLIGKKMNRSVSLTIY
T3 sequence (P30291 whole entry): as above

With `C=CCn1c(=O)c2cnc(Nc3cnn(C(C)C)c3)nc2n1-c1cccc(N(C)C2CCN(C)CC2)n1` [Compound 174, 1-{6-[methyl(1-methylpiperidin-4-yl)amino]pyridin-2-yl}-2-(prop-2-en-1-yl)-6-{[1-(propan-2-yl)-1H-pyrazol-4-yl]amino}-1H,2H,3H-pyrazolo[3,4-d]pyrimidin-3-one], the IC50 in experiment [1] (setting [4]) was more than 500 nM; in experiment [3] it was less than 10 nM. Also, in experiment [2] (setting [5]), the EC50 is 100 to 500 nM.
In the case of `C=CCn1c(=O)c2cnc(Nc3ccc4c(cnn4C(C)C)c3)nc2n1-c1ccnc(OC2CCNCC2)n1` [Compound 375, 2-allyl-6-((1-isopropyl-1H-indazol-5-yl)amino)-1-(2-(piperidin-4-yloxy)pyrimidin-4-yl)-1,2-dihydro-3H-pyrazolo[3,4-d]pyrimidin-3-one], the IC50 in experiment [1] (setting [6]) was 20 to 100 nM; in experiment [3] (setting [8]) it was less than 10 nM. For the same compound, the EC50 in experiment [2] (setting [7]) was less than 100 nM.
`C=CCn1c(=O)c2cnc(Nc3ccc(OC(F)(F)F)cc3)nc2n1-c1cccc(NC2CCNCC2)n1` [Compound 135, 1-{6-[(piperidin-4-yl)amino]pyridin-2-yl}-2-(prop-2-en-1-yl)-6-{[4-(trifluoromethoxy)phenyl]amino}-1H,2H,3H-pyrazolo[3,4-d]pyrimidin-3-one]: the results for the IC50 in experiment [1] (setting [6]) and in experiment [3] (setting [8]) were 100 to 500 nM and less than 10 nM, respectively. Also, the EC50 in experiment [2] (setting [7]) lay within 500 to 1000 nM.
As to `C=CCn1c(=O)c2cnc(Nc3ccc(Cl)cc3)nc2n1-c1cccc(O[C@@H]2CCCNC2)n1` [Compound 192, 1-{6-[(R)-3-piperidyloxy]-2-pyridyl}-2-allyl-6-(p-chlorophenylamino)-1,2-dihydro-3H-1,2,5,7-tetraazainden-3-one], the concentration for half-maximal inhibition (IC50) in experiment [1] (setting [6]) was 100 to 500 nM; in experiment [3] (setting [8]) it was less than 10 nM. The EC50 in experiment [2] (setting [7]) was in the range of 100 to 500 nM.
`C=CCn1c(=O)c2cnc(Nc3ccc4nccnc4c3)nc2n1-c1cccc(OC2CCNCC2)n1` [Compound 239, 2-allyl-1-[6-(4-piperidyloxy)-2-pyridyl]-6-(6-quinoxalinylamino)-1,2-dihydro-3H-1,2,5,7-tetraazainden-3-one]: the IC50 in experiment [1] (setting [6]) is less than 20 nM; in experiment [3] (setting [8]) it was less than 10 nM. Besides, the EC50 in experiment [2] (setting [7]) fell in the range of 100 to 500 nM.
In the case of `C=CCn1c(=O)c2cnc(Nc3ccc(Cl)cc3)nc2n1-c1cccc(N(C)[C@@H]2CCCNC2)n1` [Compound 171, 1-{6-[N—(R)-3-piperidyl-N-methylamino]-2-pyridyl}-2-allyl-6-(p-chlorophenylamino)-1,2-dihydro-3H-1,2,5,7-tetraazainden-3-one], the IC50 in experiment [1] (setting [6]) was more than 500 nM; in experiment [3] (setting [8]) it was less than 10 nM. In experiment [2] (setting [7]), the EC50 is more than 1000 nM.
For `C=CCn1c(=O)c2cnc(Nc3ccc4c(cnn4C)c3)nc2n1-c1cccc(NC2CCNCC2)n1` [Compound 122, 6-[(1-methyl-1H-indazol-5-yl)amino]-1-{6-[(piperidin-4-yl)amino]pyridin-2-yl}-2-(prop-2-en-1-yl)-1H,2H,3H-pyrazolo[3,4-d]pyrimidin-3-one], the figures for the IC50 in experiment [1] (setting [6]) and in experiment [3] (setting [8]) were 100 to 500 nM and less than 10 nM, respectively. The EC50 in experiment [2] (setting [7]) was in the range of 500 to 1000 nM.
As to `C=CCn1c(=O)c2cnc(Nc3cnn(CCC(F)(F)F)c3)nc2n1-c1cccc(N(C)C2CCN(C)CC2)n1` [Compound 201, 2-allyl-1-(6-(methyl(1-methylpiperidin-4-yl)amino)pyridin-2-yl)-6-((1-(3,3,3-trifluoropropyl)-1H-pyrazol-4-yl)amino)-1,2-dihydro-3H-pyrazolo[3,4-d]pyrimidin-3-one], the IC50 in experiment [1] (setting [4]) was 100 to 500 nM; in experiment [3], less than 10 nM. Besides, the EC50 in experiment [2] (setting [5]) lay within 500 to 1000 nM.
As to `C=CCn1c(=O)c2cnc(Nc3ccc4c(cnn4C)c3)nc2n1-c1cccc(O[C@@H]2CCN[C@@H](C)C2)n1` (relative stereo) [Compound 405, rel-2-allyl-6-((1-methyl-1H-indazol-5-yl)amino)-1-(6-(((2R,4S)-2-methylpiperidin-4-yl)oxy)pyridin-2-yl)-1,2-dihydro-3H-pyrazolo[3,4-d]pyrimidin-3-one], the IC50 in experiment [1] (setting [6]) is 20 to 100 nM; in experiment [3] (setting [8]), less than 10 nM. Besides, in experiment [2] (setting [7]), the EC50 was less than 100 nM.
Regarding `C=CCn1c(=O)c2cnc(Nc3cc(C)nc(C(F)(F)F)c3)nc2n1-c1cccc(OC2CCN(C)CC2)n1` [Compound 202, 6-{[2-methyl-6-(trifluoromethyl)pyridin-4-yl]amino}-1-{6-[(1-methylpiperidin-4-yl)oxy]pyridin-2-yl}-2-(prop-2-en-1-yl)-1H,2H,3H-pyrazolo[3,4-d]pyrimidin-3-one], the IC50 in experiment [1] (setting [6]) was 100 to 500 nM; in experiment [3] (setting [8]), less than 10 nM. Besides, the EC50 in experiment [2] (setting [7]) was 500 to 1000 nM.
Regarding `C=CCn1c(=O)c2cnc(Nc3ccc4c(cnn4C)c3)nc2n1-c1cccc(O[C@H]2CCCNCC2)n1` (single isomer, unassigned) [Compound 358], the IC50 in experiment [1] (setting [6]) is 100 to 500 nM; in experiment [3] (setting [8]) it was less than 10 nM. For the same compound, the EC50 in experiment [2] (setting [7]) is less than 100 nM.
For `C=CCn1c(=O)c2cnc(Nc3ccc(OC(F)(F)F)c(C)c3)nc2n1-c1cccc(NC2CCNCC2)n1` [Compound 136, 6-{[3-methyl-4-(trifluoromethoxy)phenyl]amino}-1-{6-[(piperidin-4-yl)amino]pyridin-2-yl}-2-(prop-2-en-1-yl)-1H,2H,3H-pyrazolo[3,4-d]pyrimidin-3-one], the IC50 in experiment [1] (setting [6]) was 100 to 500 nM; in experiment [3] (setting [8]), less than 10 nM. Further, the EC50 in experiment [2] (setting [7]) fell in the range of 100 to 500 nM.
As for `C=CCn1c(=O)c2cnc(Nc3ccc(C#N)c(C)c3)nc2n1-c1cccc(NC2CCNCC2)n1` [Compound 134, 2-methyl-4-[(3-oxo-1-{6-[(piperidin-4-yl)amino]pyridin-2-yl}-2-(prop-2-en-1-yl)-1H,2H,3H-pyrazolo[3,4-d]pyrimidin-6-yl)amino]benzonitrile], the concentration for half-maximal inhibition (IC50) in experiment [1] (setting [6]) was 100 to 500 nM; in experiment [3] (setting [8]), less than 10 nM. Further, the EC50 in experiment [2] (setting [7]) was more than 1000 nM.
As to `CCn1c(=O)c2cnc(Nc3cccc(-c4ccccc4)c3)nc2n1-c1cccc(OC2CCNCC2)n1` [Compound 338, 6-(3-biphenylylamino)-2-ethyl-1-[6-(4-piperidyloxy)-2-pyridyl]-1,2-dihydro-3H-1,2,5,7-tetraazainden-3-one], the half-maximal inhibitory concentration (IC50) in experiment [1] (setting [6]) was 20 to 100 nM; in experiment [3] (setting [8]) it was less than 10 nM. In experiment [2] (setting [7]), the EC50 was more than 1000 nM.
In the case of `C=CCn1c(=O)c2cnc(Nc3ccc(OCC(F)(F)F)cc3)nc2n1-c1cccc(NC2CCNCC2)n1` [Compound 130, 2-allyl-1-[6-(4-piperidylamino)-2-pyridyl]-6-[p-(2,2,2-trifluoroethoxy)phenylamino]-1,2-dihydro-3H-1,2,5,7-tetraazainden-3-one], the IC50 in experiment [1] (setting [6]) is 20 to 100 nM; in experiment [3] (setting [8]), less than 10 nM. For the same compound, the EC50 in experiment [2] (setting [7]) is 500 to 1000 nM.
With `C=CCn1c(=O)c2cnc(Nc3cnn(CC(C)(C)F)c3)nc2n1-c1cccc(N(C)C2CCN(C)CC2)n1` [Compound 185, 6-{[1-(2-fluoro-2-methylpropyl)-1H-pyrazol-4-yl]amino}-1-{6-[methyl(1-methylpiperidin-4-yl)amino]pyridin-2-yl}-2-(prop-2-en-1-yl)-1H,2H,3H-pyrazolo[3,4-d]pyrimidin-3-one], the half-maximal inhibitory concentration (IC50) is more than 500 nM in experiment [1] (setting [4]) and less than 10 nM in experiment [3]. Moreover, the EC50 in experiment [2] (setting [5]) is 500 to 1000 nM.
Take `C=CCn1c(=O)c2cnc(Nc3ccc4c(cnn4C)c3)nc2n1-c1cccc(N[C@@H]2CCN(C)C2)n1` [Compound 115]: the IC50 in experiment [1] (setting [6]) was 20 to 100 nM; in experiment [3] (setting [8]), less than 10 nM. For the same compound, the EC50 in experiment [2] (setting [7]) is less than 100 nM.
Turning to `C=CCn1c(=O)c2cnc(Nc3ccc4ncnn4c3)nc2n1-c1cccc(OC2CCN(C)CC2)n1` [Compound 249, 2-allyl-6-(1,3,3a-triaza-5-indenylamino)-1-[6-(1-methyl-4-piperidyloxy)-2-pyridyl]-1,2-dihydro-3H-1,2,5,7-tetraazainden-3-one], the results for the IC50 in experiment [1] (setting [6]) and in experiment [3] (setting [8]) were 20 to 100 nM and less than 10 nM, respectively. For the same compound, the EC50 in experiment [2] (setting [7]) lay in the range of 100 to 500 nM.
